Results taken from patent US12589087B2, “Enantiomer selective action on neurotransmission” (The Board of Trustees of the Leland Stanford Junior …, priority 2021, dated 2026).

How the values were obtained:
[1] = Pharmacokinetics of 2MeGlu and 2MeGln in mice; type: in vivo; conditions: 100 mg/kg IP, mouse brain; for time of peak brain concentration: for rac-2MeGln: 2MeGln
Description: C57BL/6 mice (Jackson Laboratory cat. no. 000664) were administered 100 mg/kg IP. […] Whole brain was promptly dissected and one half frozen at −80° C. until homogenization in ice cold PBS (pH 7.4) using a probe ultrasonic homogenizer (Branson Sonifier 450, Power: 5, Cycle: 30%, time: 10 s) on ice. The lysate was centrifuged (2,500 g for 15 min at 4° C.) and the supernatant was assayed using Pierce BCA Protein Assay Kit (23225) using BioTek Epoch plate spectrophotometer by recording absorbance at 562 nm. Two or three 10 μL aliquots of the homogenate were transferred to a 96 well plate and extracted with 190 μL of 60% acetonitrile in water containing 10 μM GABA-d6 or 10 μM Glu-d5 and Gln-d5 as internal standards. 40 μL aliquots of the extracts were then diluted with 120 μL of acetonitrile and prepared for LC-MS/MS analysis. Brain and serum half-lives were calculated using the ‘PKNCA’ package for R. Endogenous levels of Glu, Gln and GABA were determined in the brains of mice used in the pharmacokinetics experiment. MRM transitions specific for Glu, Gln and GABA were monitored simultaneously.

C57Bl/6 mice = assay: SHIRPA, activity chamber open field and hot plate after single injection; type: in vivo, mouse
Description: Dosing: (R)-2MeGlu (30, 100, 300, or 900 mg/kg), (S)-2MeGlu (30, 100, 300, or 900 mg/kg), rac-2MeGln (30, 100, 300, or 900 mg/kg) and vehicle (PBS) were administered at 10 ml/kg IP dosing volume. Three mice were dosed once with the assigned drug (100, 300, or 900 mg/kg) or vehicle and immediately placed in a new cage for novel cage observation. Subsequently, six mice were dosed once with the assigned drug (30 or 100 mg/kg) or vehicle and tested by SHIRPA, activity chamber, and then hot plate tests.
Hot Plate apparatus (IITC Inc. Model 39) was set to 55° C.±0.2. On testing day, mice were placed on the surface of the hot plate and covered by a transparent glass cylinder (25 cm high and 12 cm diameter). A 30 second cutoff time was assigned. A remote foot-switch pad was used to control the start/stop/reset function. Latency time was recorded when hind paw licking or jumping off first occurred.
The SHIRPA preliminary screen designed by Rogers et al. (1997) was modified and used to assess the general health and behavioral traits of the mice for the initial five minutes after drug administration. The test was conducted in three different testing locations: A cylindrical clear plastic viewing jar (15 cm height×10 cm diameter), a polycarbonate cage (Arena) with 10 cm×10 cm squares on the floor, and a 1 cm×1 cm wire grid. The test began by placing the mouse in the clear plastic viewing jar for 60 seconds, and the behavioral parameters were monitored and recorded. The mouse was then transferred to an open-top arena by releasing them from 25 cm above the floor of the arena. Upon completion of monitoring the parameters inside the arena, the mouse was removed from the arena by the tail. Behavioral parameters monitored were according to Portmann et al. (2014).
Assessment was made in an Open Field Activity Arena (Med Associates Inc., St. Albans, VT. Model ENV-515) mounted with three planes of infrared detectors within a specially designed sound-attenuating chamber (Med Associates Inc., St. Albans, VT. MED-017M-027). The arena was 43 cm (L)×43 cm (W)×30 cm (H) and the sound-attenuating chamber was 74 cm (L)×60 cm (W)×60 cm (H). The mice were placed in the corner of the testing arena and allowed to explore the arena for 60 min while being tracked automatically. Parameters measured include distance moved, velocity, rearing, and times spent in the periphery and center of the Arena. Periphery was defined as the zone 5 cm away from the arena wall. The Arena was cleaned with a 1% Virkon solution at the end of the trial. […] The novel cage protocol is conducted on the benchtop in a lighted room using a clean home cage, and tests habituation using video recording and scoring of behavioral performance. Moreover, the novel cage allows the tester to visualize any other side effects such as seizure or repetitive jumping. The activity chamber is in an enclosed box, and the test is done in the dark, without bedding, and in a sound isolating chamber. The activity chamber measures distance moved using infrared beams and without video recordings.
Exploratory behavioral tests were performed exactly as previously described by us using 2-month-old C57Bl/6 male mice, Example 1. First, we assessed safety and tolerability of acute exposure to 4APA enantiomers in 22 mice by novel cage observation at 100, 300, or 900 mg/kg IP compared to vehicle (PBS) IP (n=3 or 4 mice per group without sample calculation, based on our previous study. Next, we evaluated 24 drug naïve mice with a 23-measure battery of neurologic dysfunction in mice (SHIRPA) (Rogers et al., 2001), automated activity chamber assessment, and hot plate latency acutely following 30 or 100 mg/kg IP compared to vehicle IP (n=4 or 5 mice per group). No exclusion criteria were predetermined and no randomization was performed to allocate subjects in the study.

[2] = single 30 mg/kg IP, only at 11 minutes post injection
[3] = single 100 mg/kg IP, up to 6 minutes post injection

Structure (SMILES): CC(N)(CCC(N)=O)C(=O)O (racemic) [rac-2MeGln, rac-2-methylglutamine]
- time of peak brain concentration [1]: 25 min
- distance moved in the activity chamber vs vehicle (C57Bl/6 mice; [2]): modest but significant reduction
- distance moved in the activity chamber vs vehicle (C57Bl/6 mice; [3]): not significantly different from vehicle at any time point

Structure (SMILES): C[C@](N)(CCC(=O)O)C(=O)O [(S)-2MeGlu, (S)-2-methylglutamic acid]
- maximum brain concentration [1]: 50 pmol/mg protein
- time of peak brain concentration [1]: 25 min
- distance moved in the activity chamber vs vehicle (C57Bl/6 mice; [2]): not significantly different
- distance moved in the activity chamber vs vehicle (C57Bl/6 mice; [3]): significantly reduced

Structure (SMILES): C[C@@](N)(CCC(=O)O)C(=O)O [(R)-2MeGlu, (R)-2-methylglutamic acid]
- maximum brain concentration [1]: 30 pmol/mg protein
- time of peak brain concentration [1]: ≤ 5 min
- half-life ([1]; C57BL/6): ~1.17 h
- distance moved in the activity chamber vs vehicle (C57Bl/6 mice; [2]): modest but significant reduction
- distance moved in the activity chamber vs vehicle (C57Bl/6 mice; [3]): significantly reduced
